From patent US10619138B2, “Herbicide-resistant hydroxyphenylpyruvate dioxygenases” (BASF SE, priority 2013, dated 2020)
Where “and” joins values, the source holds several entries; their conditions need not be identical. Equal entries are not always repeated.

Columns and labels:
[1] = molecular target: T1, Arabidopsis HPPD (SEQ ID NO: 42) (Arabidopsis thaliana, UniProt P93836); test: In vitro HPPD activity assay (HGA by HPLC), wildtype enzyme characterization; assay type: biochemical; details: normalized on Arabidopsis wild-type HPPD; reference enzyme
T1 construct: Arabidopsis (42); His tag; made in house; host or cells: E. coli BL21 (DE3)
T1 sequence (P93836 1-445): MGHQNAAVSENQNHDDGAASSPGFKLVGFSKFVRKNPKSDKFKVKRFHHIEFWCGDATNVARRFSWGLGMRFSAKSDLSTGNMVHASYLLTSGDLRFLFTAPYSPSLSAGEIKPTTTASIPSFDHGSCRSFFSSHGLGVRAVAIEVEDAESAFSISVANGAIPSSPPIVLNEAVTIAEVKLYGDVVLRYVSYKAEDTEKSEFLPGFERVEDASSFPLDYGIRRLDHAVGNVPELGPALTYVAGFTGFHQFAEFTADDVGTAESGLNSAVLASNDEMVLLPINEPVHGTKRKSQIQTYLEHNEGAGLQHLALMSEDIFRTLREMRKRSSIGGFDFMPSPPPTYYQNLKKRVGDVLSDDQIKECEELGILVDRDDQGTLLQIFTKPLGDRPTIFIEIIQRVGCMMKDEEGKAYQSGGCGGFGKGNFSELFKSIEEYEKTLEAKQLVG
Experimental: (§1) The activity assay for HPPD is based on the analysis of homogentisic acid by reversed phase HPLC.
(§2) The assay mixture can contain 150 mM potassium phosphate buffer pH 7.0, 50 mM L-ascorbic acid, 100 μM Catalase (Sigma-Aldrich), 1 μM FeSO4 and 0.2 units of purified HPPD enzyme in a total volume of 505 μl. 1 unit is defined as the amount of enzyme that is required to produce 1 nmol of HGA per minute at 20° C.
(§3) The reaction is allowed to proceed for 45 min at room temperature. The reaction is stopped by the addition of 50 μl of 4.5 M phosphoric acid. The sample is filtered using a […] pore size PVDF filtration device.
(§4) 5 μl of the cleared sample is analyzed on an UPLC HSS T3 column (particle size 1.8 μm, dimensions 2.1×50 mm; Waters) by isocratic elution using 90% 20 mM NaH2PO4 pH 2.2, 10% methanol (v/v).
(§5) HGA is detected electrochemically at 750 mV (mode: DC; polarity: positive) and quantified by integrating peak areas (Empower software; Waters).
Inhibitors are dissolved in DMSO (dimethylsulfoxide) to a concentration of 0.5 mM. From this stock solution serial five-fold dilutions are prepared in DMSO, which are used in the assay. The respective inhibitor solution accounts for 1% of the assay volume. […] Activities are normalized by setting the uninhibited enzyme activity to 100%. IC50 values are calculated using non-linear regression.
(§6) Using methods which are described in the above examples or well known in the art, purified, recombinant wildtype HPPD enzymes are characterized with respect to their kinetic properties and sensitivity towards HPPD inhibiting herbicides. Apparent michaelis constants (Km) and maximal reaction velocities (Vmax) are calculated by non-linear regression with the software GraphPad Prism 5 (GraphPad Software, La Jolla, USA) using a substrate inhibition model. […] Weighted means (by standard error) of Km and IC50 values are calculated from at least three independent experiments.
(§7) Field performance of the HPPD enzyme, which is used as a herbicide tolerance trait may depend not only on its lack of sensitivity towards HPPD inhibiting herbicides but also on its activity. To assess the potential performance of a herbicide tolerance trait a tolerance index (TI) is calculated using the following formula: […]
(§8) Easy comparison and ranking of each trait is enabled by normalizing tolerance indexes on Arabidopsis wild-type HPPD.

[2] = tested on: Acidobacterium HPPD (SEQ ID NO: 30); test: In vitro HPPD activity assay, tolerance index; assay type: biochemical, Acidobacterium capsulatum; details: normalized on Arabidopsis wild-type HPPD
Experimental: as §1, §2, §3, §4, §5
(§9) Inhibitors are dissolved in DMSO (dimethylsulfoxide) to a concentration of 0.5 mM. From this stock solution serial five-fold dilutions are prepared in DMSO, which are used in the assay. The respective inhibitor solution accounts for 1% of the assay volume. Thus, final inhibitor concentrations range from 5 μM to 320 pM, respectively. Activities are normalized by setting the uninhibited enzyme activity to 100%. IC50 values are calculated using non-linear regression.
as §6, with “experiments. The Cheng-Prusoff equation for competitive inhibition (Cheng, Y. C.; Prusoff, W. H. Biochem Pharmacol 1973, 22, 3099-3108) is used to calculate dissociation constants (Ki).” for “experiments.”
as §7, §8

[3] = tested on: Algoriphagus HPPD (SEQ ID NO: 22); test: In vitro HPPD activity assay, tolerance index; assay type: biochemical, Algoriphagus machipongonensis; details: normalized on Arabidopsis wild-type HPPD
Experimental: as §1, §2, §3, §4, §5, §9
as §6, with “experiments. The Cheng-Prusoff equation for competitive inhibition (Cheng, Y. C.; Prusoff, W. H. Biochem Pharmacol 1973, 22, 3099-3108) is used to calculate dissociation constants (Ki).” for “experiments.”
as §7, §8

[4] = tested on: Mucilaginibacter HPPD (SEQ ID NO: 28); test: In vitro HPPD activity assay, tolerance index; assay type: biochemical, Mucilaginibacter paludis; details: normalized on Arabidopsis wild-type HPPD
Experimental: as §1, §2, §3, §4, §5, §9
as §6, with “experiments. The Cheng-Prusoff equation for competitive inhibition (Cheng, Y. C.; Prusoff, W. H. Biochem Pharmacol 1973, 22, 3099-3108) is used to calculate dissociation constants (Ki).” for “experiments.”
as §7, §8

[5] = tested on: Microscilla HPPD (SEQ ID NO: 20); test: In vitro HPPD activity assay, tolerance index; assay type: biochemical, Microscilla marina; details: normalized on Arabidopsis wild-type HPPD
Experimental: as §1, §2, §3, §4, §5, §9
as §6, with “experiments. The Cheng-Prusoff equation for competitive inhibition (Cheng, Y. C.; Prusoff, W. H. Biochem Pharmacol 1973, 22, 3099-3108) is used to calculate dissociation constants (Ki).” for “experiments.”
as §7, §8

[6] = tested on: Pontibacter HPPD (SEQ ID NO: 16); test: In vitro HPPD activity assay, tolerance index; assay type: biochemical, Pontibacter sp.; details: normalized on Arabidopsis wild-type HPPD
Experimental: as §1, §2, §3, §4, §5, §9
as §6, with “experiments. The Cheng-Prusoff equation for competitive inhibition (Cheng, Y. C.; Prusoff, W. H. Biochem Pharmacol 1973, 22, 3099-3108) is used to calculate dissociation constants (Ki).” for “experiments.”
as §7, §8

[7] = tested on: Geodermatophilus HPPD (SEQ ID NO: 32); test: In vitro HPPD activity assay, tolerance index; assay type: biochemical, Geodermatophilus obscurus; details: normalized on Arabidopsis wild-type HPPD
Experimental: as §1, §2, §3, §4, §5, §9
as §6, with “experiments. The Cheng-Prusoff equation for competitive inhibition (Cheng, Y. C.; Prusoff, W. H. Biochem Pharmacol 1973, 22, 3099-3108) is used to calculate dissociation constants (Ki).” for “experiments.”
as §7, §8

[8] = tested on: Herpetosiphon HPPD (SEQ ID NO: 26); test: In vitro HPPD activity assay, tolerance index; assay type: biochemical, Herpetosiphon aurantiacus; details: normalized on Arabidopsis wild-type HPPD
Experimental: as §1, §2, §3, §4, §5, §9
as §6, with “experiments. The Cheng-Prusoff equation for competitive inhibition (Cheng, Y. C.; Prusoff, W. H. Biochem Pharmacol 1973, 22, 3099-3108) is used to calculate dissociation constants (Ki).” for “experiments.”
as §7, §8

SMILES	TI (normalized tolerance index) [1]	TI (normalized tolerance index) [2]	TI (normalized tolerance index) [3]	TI (normalized tolerance index) [4]	TI (normalized tolerance index) [5]	TI (normalized tolerance index) [6]	TI (normalized tolerance index) [7]	TI (normalized tolerance index) [8]
CC1(C)c2cccnc2C(O)=C(c2ccc(Cl)nc2Cl)S1(=O)=O [Inhibitor 8, 7-(2,6-dichloro-3-pyridyl)-5,5-dimethyl-6,6-dioxo-thiopyrano[4,3-b]pyridin-8-ol]	1	35 and 34.6	73.7	26	65.9	13.7		
CC1(C)c2cccnc2C(O)=C(c2c(F)ccc(Cl)c2Br)S1(=O)=O [Inhibitor 9, 7-(2-bromo-3-chloro-6-fluoro-phenyl)-5,5-dimethyl-6,6-dioxo-thiopyrano[4,3-b]pyridin-8-ol]	1	20 and 20.2	42.8		22.8	3.9	tolerant	tolerant
Cc1nonc1NC(=O)c1ccc(S(C)(=O)=O)c(S(C)(=O)=O)c1C [Inhibitor 10, 2-methyl-N-(4-methyl-1,2,5-oxadiazol-3-yl)-3,4-bis(methylsulfonyl)benzamide]	1		19	34.1	8.3	6		
